{"source": "patent US10681909B2", "about": "“Herbicidal triazoles” (FMC Corporation, priority 2014, dated 2020)", "key": {"[1]": {"test_system": "kochia", "assay": "Test D postemergence", "assay_type": "in vivo, Kochia scoparia", "conditions": "scale 0 to 100", "method_in_brief": "(§1)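 Both application timings used one formulation, a non-phytotoxic solvent mixture with surfactant. Preemergence pots held silt loam, and postemergence plants grew in peat moss/vermiculite medium to the 1- to 4-leaf stage. All plants were held under controlled conditions for 14 to 21 d before visual scoring relative to controls.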"}, "[2]": {"test_system": "kochia", "assay": "Test A preemergence", "assay_type": "in vivo, Kochia scoparia", "conditions": "0 to 100 scale (0 no effect, 100 complete control)", "method_in_brief": "(§2)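 Ratings reflect visual injury after ~10 d in greenhouse, 0 = no effect, 100 = complete control. Postemergence treatment was applied to one- to two-leaf seedlings; preemergence treatment was a directed soil spray at planting.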"}, "[3]": {"test_system": "johnsongrass", "assay": "Test C preemergence", "assay_type": "in vivo, Sorghum halepense", "conditions": "for Plant response rating (scale of 0 to 100 where 0 is no effect and 100 is complete control): Johnsongrass, preemergence; for Johnsongrass plant response rating (0 to 100): Preemergence, visual rating after 13 to 15 d", "method_in_brief": "(§3)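 Preemergence: seeds sown in loam soil–sand blend and treated with test chemicals formulated in a non-phytotoxic solvent mixture containing a surfactant. Postemergence: plants grown in peat moss/vermiculite-based medium and sprayed with the same formulation at 2 to 18 cm height (1- to 4-leaf stage).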"}, "[4]": {"test_system": "barnyardgrass", "assay": "Test C preemergence", "assay_type": "in vivo, Echinochloa crus-galli", "conditions": "for Plant response rating (scale of 0 to 100 where 0 is no effect and 100 is complete control): Barnyardgrass, preemergence; for Barnyardgrass plant response rating (0 to 100): Preemergence, visual rating after 13 to 15 d", "method_in_brief": "as §3"}, "[5]": {"test_system": "ragweed", "assay": "Test A postemergence", "assay_type": "in vivo, Ambrosia elatior", "conditions": "0 to 100 scale (0 no effect, 100 complete control), approx. 10 d", "method_in_brief": "as §2"}, "[6]": {"test_system": "bluegrass", "assay": "Test D preemergence", "assay_type": "in vivo, Poa annua", "conditions": "for Plant response rating: Bluegrass: scale 0 to 100", "method_in_brief": "as §1"}, "[7]": {"test_system": "buckwheat, wild", "assay": "Test D preemergence", "assay_type": "in vivo, Polygonum convolvulus", "conditions": "for Plant response rating: Buckwheat, Wild: scale 0 to 100", "method_in_brief": "as §1"}, "[8]": {"test_system": "deadnettle", "assay": "Test D postemergence", "assay_type": "in vivo, Lamium amplexicaule", "conditions": "scale 0 to 100", "method_in_brief": "as §1"}, "[9]": {"test_system": "oilseed rape", "assay": "Test C preemergence", "assay_type": "in vivo, Brassica napus", "conditions": "for Plant response rating (scale of 0 to 100 where 0 is no effect and 100 is complete control): Oilseed Rape, preemergence; for Oilseed Rape plant response rating (0 to 100): Preemergence, visual rating after 13 to 15 d", "method_in_brief": "as §3"}, "[10]": {"test_system": "ryegrass, Ital.", "assay": "Test D postemergence", "assay_type": "in vivo, Lolium multiflorum", "conditions": "scale 0 to 100", "method_in_brief": "as §1"}, "[11]": {"test_system": "wheat, spring", "assay": "Test D preemergence", "assay_type": "in vivo, Triticum aestivum", "conditions": "for Plant response rating: Wheat, Spring: scale 0 to 100", "method_in_brief": "as §1"}, "[12]": {"test_system": "wheat, winter", "assay": "Test D preemergence", "assay_type": "in vivo, Triticum aestivum", "conditions": "for Plant response rating: Wheat, Winter: scale 0 to 100", "method_in_brief": "as §1"}, "[13]": {"conditions": "16 g ai/ha, 0 is no effect, 100 is complete control"}}, "data": [{"compound": "Fc1ccc(-c2nc(OCC(F)(F)F)n(Cc3ccnc(C(F)(F)F)c3)n2)cc1", "note": "[Compound 30]", "values": [{"measurement": "Plant response rating: Kochia", "setting": "[1]; 16 g ai/ha", "value": 85}, {"measurement": "Plant response rating: Kochia", "setting": "[1]; 31 g ai/ha", "value": 90}, {"measurement": "Plant response rating: Kochia", "setting": "[1]; 62 g ai/ha", "value": 90}, {"measurement": "Plant response rating: Kochia", "setting": "[1]; 125 g ai/ha", "value": 95}, {"measurement": "Plant response rating, Kochia", "setting": "[2]; 125 g ai/ha", "value": 100}, {"measurement": "Plant response rating, Kochia", "setting": "[2]; 500 g ai/ha, approx. 10 d", "value": 100}, {"measurement": "Plant response rating (scale of 0 to 100 where 0 is no effect and 100 is complete control)", "setting": "[3]; 125 g ai/ha", "value": 85}, {"measurement": "Plant response rating (scale of 0 to 100 where 0 is no effect and 100 is complete control)", "setting": "[3]; 250 g ai/ha", "value": 95}, {"measurement": "Johnsongrass plant response rating (0 to 100)", "setting": "[3]; 31 g ai/ha", "value": 35}, {"measurement": "Johnsongrass plant response rating (0 to 100)", "setting": "[3]; 62 g ai/ha", "value": 65}, {"measurement": "Plant response rating (scale of 0 to 100 where 0 is no effect and 100 is complete control)", "setting": "[4]; 125 g ai/ha", "value": 85}, {"measurement": "Plant response rating (scale of 0 to 100 where 0 is no effect and 100 is complete control)", "setting": "[4]; 250 g ai/ha", "value": 98}, {"measurement": "Barnyardgrass plant response rating (0 to 100)", "setting": "[4]; 31 g ai/ha", "value": 40}, {"measurement": "Barnyardgrass plant response rating (0 to 100)", "setting": "[4]; 62 g ai/ha", "value": 85}, {"measurement": "Plant response rating, Ragweed", "setting": "[5]; 125 g ai/ha", "value": 40}, {"measurement": "Plant response rating, Ragweed", "setting": "[5]; 500 g ai/ha", "value": 70}, {"measurement": "Plant response rating (0 to 100), Bluegrass", "setting": "[6]; [13]", "value": 75}, {"measurement": "Plant response rating: Bluegrass", "setting": "[6]; 31 g ai/ha", "value": 75}, {"measurement": "Plant response rating: Bluegrass", "setting": "[6]; 62 g ai/ha", "value": 100}, {"measurement": "Plant response rating: Bluegrass", "setting": "[6]; 125 g ai/ha", "value": 100}, {"measurement": "Plant response rating (0 to 100), Buckwheat, Wild", "setting": "[7]; [13]", "value": 70}, {"measurement": "Plant response rating: Buckwheat, Wild", "setting": "[7]; 31 g ai/ha", "value": 70}, {"measurement": "Plant response rating: Buckwheat, Wild", "setting": "[7]; 62 g ai/ha", "value": 85}, {"measurement": "Plant response rating: Buckwheat, Wild", "setting": "[7]; 125 g ai/ha", "value": 85}, {"measurement": "Plant response rating: Deadnettle", "setting": "[8]; 16 g ai/ha", "value": 70}, {"measurement": "Plant response rating: Deadnettle", "setting": "[8]; 31 g ai/ha", "value": 75}, {"measurement": "Plant response rating: Deadnettle", "setting": "[8]; 62 g ai/ha", "value": 90}, {"measurement": "Plant response rating: Deadnettle", "setting": "[8]; 125 g ai/ha", "value": 100}, {"measurement": "Plant response rating (scale of 0 to 100 where 0 is no effect and 100 is complete control)", "setting": "[9]; 125 g ai/ha", "value": 100}, {"measurement": "Plant response rating (scale of 0 to 100 where 0 is no effect and 100 is complete control)", "setting": "[9]; 250 g ai/ha", "value": 100}, {"measurement": "Oilseed Rape plant response rating (0 to 100)", "setting": "[9]; 31 g ai/ha", "value": 80}, {"measurement": "Oilseed Rape plant response rating (0 to 100)", "setting": "[9]; 62 g ai/ha", "value": 80}, {"measurement": "Plant response rating: Ryegrass, Ital.", "setting": "[10]; 16 g ai/ha", "value": 35}, {"measurement": "Plant response rating: Ryegrass, Ital.", "setting": "[10]; 31 g ai/ha", "value": 60}, {"measurement": "Plant response rating: Ryegrass, Ital.", "setting": "[10]; 62 g ai/ha", "value": 65}, {"measurement": "Plant response rating: Ryegrass, Ital.", "setting": "[10]; 125 g ai/ha", "value": 70}, {"measurement": "Plant response rating (0 to 100), Wheat, Spring", "setting": "[11]; [13]", "value": 25}, {"measurement": "Plant response rating: Wheat, Spring", "setting": "[11]; 62 g ai/ha", "value": 35}, {"measurement": "Plant response rating: Wheat, Spring", "setting": "[11]; 125 g ai/ha", "value": 45}, {"measurement": "Plant response rating (0 to 100), Wheat, Winter", "setting": "[12]; [13]", "value": 15}, {"measurement": "Plant response rating: Wheat, Winter", "setting": "[12]; 62 g ai/ha", "value": 25}, {"measurement": "Plant response rating: Wheat, Winter", "setting": "[12]; 125 g ai/ha", "value": 35}]}]}
